Legend:
[1] = in vivo
[2] = tested on: influenza A virus A/PR/8/34; experiment: Mouse model for delayed treatment, lethal infection: survival and body weight; assay type: in vivo, BALB/c mice
[3] = rat, in vivo, po
[4] = tested on: influenza A virus A/PR/8/34; experiment: Mouse model for delayed treatment: virus titers in lungs; assay type: in vivo, BALB/c mice; conditions: for virus in lungs: days 8 and 10 post infection, treatment from 72 hours, limit of detection 1.50 log10 TCID50/ml

Compound: CC(=O)Oc1c2n(ccc1=O)N([C@@H]1c3ccccc3SCc3c1ccc(F)c3F)[C@@H]1COCCN1C2=O [II-4]
- BA(%) [1]: 20.0%

Compound: COC(=O)OCOc1c2n(ccc1=O)N([C@@H]1c3ccccc3SCc3c1ccc(F)c3F)[C@@H]1COCCN1C2=O [II-6, baloxavir marboxil]
- survival ([2]; BXM 15 mg/kg orally twice daily for 5 days from 24, 48, or 72 hours post infection, observed to day 28): all mice treated with 1.5 and 15 mg/kg of BXM survived
- survival time versus vehicle-treated group ([2]; BXM from 24, 48, 72, and 96 hours post infection, P<0.01 or P<0.001): Significant differences in survival time
- body weight change versus vehicle-treated group ([2]; BXM from 24, 48, 72, or 96 hours post infection): significantly less reduction of body weight compared with the vehicle-treated group
- body weight loss versus OSP-treated group ([2]; BXM from 24, 48, 72 or 96 hour post infection, on indicated days): significantly less body weight loss than did the OSP-treated group
- survival time versus OSP-treated group ([2]; BXM given from 72 and 96 hours post infection, OSP 5 mg/kg): significantly prolonged compared with that in OSP-treated group
- concentration of Compound II-6 in plasma samples [3]: a determination limit or less
- virus titers in lung versus vehicle-treated group ([4]; BXM 1.5 and 15 mg/kg for 5 days from 72 hours post infection, days 4 and 6 post infection): significantly reduced compared with those in the vehicle-treated group
- virus titer in lung versus OSP-treated group ([4]; BXM 1.5 and 15 mg/kg from 72 hours post infection, days 4 and 6 post infection): significantly lower than that in the group treated with 5 mg/kg of OSP
- virus in lungs [4]: No virus was detected

Compound: CCOC(=O)C1=C[C@@H](OC(CC)CC)[C@H](NC(C)=O)[C@@H](N)C1 [OSP, Oseltamivir phosphate, reference compound]
- survival time versus vehicle-treated group ([2]; OSP 5 mg/kg twice daily for 5 days from 24 or 48 hours post infection): survived for a significant longer period than the vehicle-treated group
- protection level (survival) ([2]; OSP 5 mg/kg twice daily for 5 days from 72 or 96 hours post infection): protection level was decreased
- body weight loss versus control group ([2]; OSP from 24 and 48 hours post infection): Significant inhibitions in body weight loss
- body weight loss versus vehicle-treated group ([2]; OSP from 72 and 96 hours post infection): body weight loss comparable to the vehicle-treated group
- virus titers in lung versus vehicle-treated group ([4]; OSP 5 mg/kg from 72 hours post infection, day 4 post infection): Significant reduction in virus titers
- virus in lungs [4]: No virus was detected

Compound: O=C1c2c(O)c(=O)ccn2N([C@@H]2c3ccccc3SCc3c2ccc(F)c3F)[C@@H]2COCCN12 [III-2, baloxavir acid]
- BA(%) [1]: 4.2%

From patent US20210228590A1, “TREATING INFLUENZA USING SUBSTITUTED POLYCYCLIC PYRIDONE DERIVATIVES AND PRODRUGS THEREOF” (priority 2018, published 2021)
